The target of assay [1] is T1, Serine/threonine-protein kinase mTOR (Homo sapiens, UniProt P42345). Description: Inhibition of mTOR (unknown origin).
For another assay, the target named is Histone deacetylase 1 (Homo sapiens, UniProt Q13547). Description: Inhibition of HDAC1 (unknown origin).
Another assay has as its system A549. The assay is described as follows: Antiproliferative activity against human A549 cells assessed as reduction in cell viability. It is filed as functional, cell-based.
The subject of a further assay is HCT-116. The assay is described as follows: Antiproliferative activity against human HCT-116 cells assessed as reduction in cell viability. It is filed as functional, cell-based.
For a further assay, the system named is MV4-11. Description: Antiproliferative activity against human MV4-11 cells harboring FLT3-ITD mutant assessed as reduction in cell viability. Format: functional, cell-based.
Assay [2] has as its target T2, Protein deacetylase HDAC6 (Homo sapiens, UniProt Q9UBN7).
T2 sequence (Q9UBN7 whole entry): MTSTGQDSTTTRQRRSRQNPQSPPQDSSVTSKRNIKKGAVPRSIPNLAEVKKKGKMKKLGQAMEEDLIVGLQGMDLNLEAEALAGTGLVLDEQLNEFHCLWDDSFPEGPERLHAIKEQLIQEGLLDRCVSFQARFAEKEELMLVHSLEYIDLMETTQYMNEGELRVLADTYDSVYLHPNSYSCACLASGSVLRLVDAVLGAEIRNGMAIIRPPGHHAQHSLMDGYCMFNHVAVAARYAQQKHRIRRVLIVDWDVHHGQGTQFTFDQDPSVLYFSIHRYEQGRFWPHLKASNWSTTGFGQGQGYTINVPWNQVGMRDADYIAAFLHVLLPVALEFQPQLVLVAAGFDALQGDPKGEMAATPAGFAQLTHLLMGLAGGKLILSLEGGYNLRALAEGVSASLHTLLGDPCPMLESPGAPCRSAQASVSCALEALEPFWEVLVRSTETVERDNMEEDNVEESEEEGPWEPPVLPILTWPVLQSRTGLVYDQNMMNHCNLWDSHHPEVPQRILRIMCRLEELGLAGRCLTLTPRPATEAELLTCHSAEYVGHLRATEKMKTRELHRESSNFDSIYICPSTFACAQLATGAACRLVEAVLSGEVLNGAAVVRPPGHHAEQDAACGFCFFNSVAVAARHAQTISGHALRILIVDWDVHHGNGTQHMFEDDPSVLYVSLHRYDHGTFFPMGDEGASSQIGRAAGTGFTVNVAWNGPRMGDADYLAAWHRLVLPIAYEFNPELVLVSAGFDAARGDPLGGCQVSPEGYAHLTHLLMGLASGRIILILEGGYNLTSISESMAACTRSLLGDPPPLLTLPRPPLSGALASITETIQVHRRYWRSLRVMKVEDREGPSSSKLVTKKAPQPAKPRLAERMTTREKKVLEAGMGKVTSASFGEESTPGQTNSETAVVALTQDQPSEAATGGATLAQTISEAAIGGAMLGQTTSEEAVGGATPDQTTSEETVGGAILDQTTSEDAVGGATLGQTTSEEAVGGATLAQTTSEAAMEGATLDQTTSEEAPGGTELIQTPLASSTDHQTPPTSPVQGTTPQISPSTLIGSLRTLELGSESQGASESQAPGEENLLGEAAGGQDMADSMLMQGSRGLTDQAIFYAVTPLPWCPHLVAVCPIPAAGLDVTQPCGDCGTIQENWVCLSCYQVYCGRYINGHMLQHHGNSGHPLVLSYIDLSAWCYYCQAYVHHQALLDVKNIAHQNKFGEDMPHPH
The assay is described as follows: Inhibition of HDAC6 (unknown origin).

The target in another assay is T3, Histone deacetylase 8 (Homo sapiens, UniProt Q9BY41).
T3 sequence (Q9BY41 whole entry): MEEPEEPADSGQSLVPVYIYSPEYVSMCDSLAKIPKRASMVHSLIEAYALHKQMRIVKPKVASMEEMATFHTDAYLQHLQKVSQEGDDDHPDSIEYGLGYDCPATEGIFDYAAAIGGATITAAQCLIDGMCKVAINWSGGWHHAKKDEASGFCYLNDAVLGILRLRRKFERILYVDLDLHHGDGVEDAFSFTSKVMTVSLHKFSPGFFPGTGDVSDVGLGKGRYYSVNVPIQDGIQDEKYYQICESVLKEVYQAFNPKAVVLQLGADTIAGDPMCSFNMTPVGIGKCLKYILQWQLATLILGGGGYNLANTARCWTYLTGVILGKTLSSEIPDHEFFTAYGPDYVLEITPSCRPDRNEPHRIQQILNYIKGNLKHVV
The assay is described as follows: Inhibition of HDAC8 (unknown origin).

The target in a further assay is T4, Histone deacetylase 11 (Homo sapiens, UniProt Q96DB2).
T4 sequence (Q96DB2 whole entry): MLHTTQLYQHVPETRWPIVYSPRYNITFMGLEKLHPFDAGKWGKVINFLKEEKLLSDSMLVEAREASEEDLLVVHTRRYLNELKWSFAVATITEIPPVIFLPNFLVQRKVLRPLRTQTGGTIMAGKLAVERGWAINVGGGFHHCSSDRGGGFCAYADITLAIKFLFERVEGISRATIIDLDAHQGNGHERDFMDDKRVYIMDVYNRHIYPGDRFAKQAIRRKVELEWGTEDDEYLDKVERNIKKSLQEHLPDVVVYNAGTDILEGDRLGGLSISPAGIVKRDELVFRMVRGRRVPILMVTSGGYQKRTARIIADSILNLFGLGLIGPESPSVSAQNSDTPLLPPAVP
The assay is described as follows: Inhibition of HDAC11 (unknown origin).

In assay [3] the target is T1, Serine/threonine-protein kinase mTOR. The assay is described as follows: Inhibition of mTOR complexes in human MV4-11 cells assessed as suppression of phosphorylation of S6 ribosomal at Ser235/236 residues at 300 nM by Western blot analysis relative to control. Format: cell-based.
For assay [4] the target is unchanged. The assay is described as follows: Inhibition of mTOR complexes in human MV4-11 cells assessed as reduction in p-AKT(Ser473) protein level at 300 nM by Western blot analysis relative to control. It is filed as cell-based.
Assay [5] deals with T5, Histone deacetylase (Homo sapiens) (UniProt Q13547+O15379+Q9UBN7+Q92769+Q9UQL6+Q8WUI4+Q9BY41+Q96DB2+P56524+Q9UKV0+Q969S8). Description: Inhibition of HDAC in human MV4-11 cells assessed as increase in acetylation of histone H3 (ac-H3 K9) by Western blot analysis relative to control. Format: cell-based.
For assay [6], the target named is T5, Histone deacetylase (Homo sapiens). The assay is described as follows: Inhibition of HDAC in human MV4-11 cells assessed as increase in acetylation of alpha-tubulin at Lys40 residue by Western blot analysis relative to control. Format: cell-based.

SMILES strings stand for the structures. Calls of active or inactive are those of the source. The rule behind the calls is not given here.

Histone deacetylase 1, sequence (Q13547 whole entry): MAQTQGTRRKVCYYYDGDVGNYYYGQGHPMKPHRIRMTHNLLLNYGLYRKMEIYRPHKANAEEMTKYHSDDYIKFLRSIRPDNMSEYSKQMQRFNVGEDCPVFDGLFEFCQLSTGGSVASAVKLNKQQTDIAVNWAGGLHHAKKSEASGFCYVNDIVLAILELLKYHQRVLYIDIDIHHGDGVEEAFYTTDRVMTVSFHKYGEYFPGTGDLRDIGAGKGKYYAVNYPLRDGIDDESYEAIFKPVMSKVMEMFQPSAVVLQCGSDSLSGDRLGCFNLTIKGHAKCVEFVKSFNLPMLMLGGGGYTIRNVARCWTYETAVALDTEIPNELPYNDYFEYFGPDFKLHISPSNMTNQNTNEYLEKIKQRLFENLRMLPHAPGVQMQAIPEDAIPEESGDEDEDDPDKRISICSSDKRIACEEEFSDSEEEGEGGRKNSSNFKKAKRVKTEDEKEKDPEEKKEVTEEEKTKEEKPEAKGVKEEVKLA

In the case of `Nc1nc2cc(-c3nn(CCCCC(=O)NO)c4ncnc(N)c34)ccc2o1`, the IC50 in assay [1] worked out at 3.76 nM; against Histone deacetylase 1, 83 nM.
With `Nc1ccc(-c2nn(CCCCC(=O)NO)c3ncnc(N)c23)cn1`, the IC50 (in [1]; at Histone deacetylase 1) was more than 1000 nM in each case.
With `Nc1nc2cc(-c3nn(Cc4ccc(C(=O)NO)s4)c4ncnc(N)c34)ccc2o1`, the concentration for half-maximal inhibition (IC50) in assay [1] stood at 27 nM; on Histone deacetylase 1, 12 nM.
The corresponding values for `Nc1ncc(-c2nn(CCCCCCC(=O)NO)c3ncnc(N)c23)cn1` are more than 1000 nM and 11 nM.
The corresponding values for `Nc1ncnc2c1c(-c1cnc3ccccc3c1)nn2CCCCC(=O)NO` are 677 nM and 65 nM.
`Nc1nc2cc(-c3nn(CCCCCCC(=O)NO)c4ncnc(N)c34)ccc2o1`: the half-maximal inhibitory concentration (IC50) turned out to be 1.7 nM in assay [1]; 0.78 nM against Histone deacetylase 1; 2860 nM with A549; 3780 nM in the assay with HCT-116; 4130 nM with MV4-11; 1.5 nM in assay [2]. For the same compound, the IC50 was 21 nM on Histone deacetylase 8 and more than 1000 nM on Histone deacetylase 11.
Take `Nc1ncc(-c2nn(CCCCC(=O)NO)c3ncnc(N)c23)cn1`: the IC50 in assay [1] was more than 1000 nM; against Histone deacetylase 1 it was 479 nM.
For `Nc1nc2cc(-c3nn(CC4CCN(C(=O)c5ccc(C(=O)NO)s5)CC4)c4ncnc(N)c34)ccc2o1`, the 50% inhibitory concentration (IC50) in assay [1] is 0.4 nM; on Histone deacetylase 1 it was 5.9 nM; with A549 it was 5900 nM; with HCT-116 it was more than 10000 nM; in the assay with MV4-11, 5210 nM.
`Nc1ccc(-c2nn(CCCCCCC(=O)NO)c3ncnc(N)c23)cn1`: the concentration for half-maximal inhibition (IC50) in assay [1] is 151 nM; against Histone deacetylase 1 it was 7.3 nM.
The corresponding values for `Nc1nc2cc(-c3nn(CC4CCN(C(=O)c5ccc(C(=O)NO)cc5)CC4)c4ncnc(N)c34)ccc2o1` are 0.84 nM and 12 nM.
On to `Nc1nc2cc(-c3nn(Cc4ccc(C(=O)NO)cn4)c4ncnc(N)c34)ccc2o1`, for which the concentration for half-maximal inhibition (IC50) in assay [1] is 25 nM; on Histone deacetylase 1, 11 nM.
The like results for `Nc1ncnc2c1c(-c1cnc3ccccc3c1)nn2CCCCCCC(=O)NO` were, in that order, 619 nM and 4.1 nM.
The like results for `Nc1nc2cc(-c3nn(CC4CCN(C(=O)CCCCC(=O)NO)CC4)c4ncnc(N)c34)ccc2o1` were, in that order, 1.9 nM and 65 nM.
For the compound `Nc1nc2cc(-c3nn(CC4CCN(c5ncc(C(=O)NO)cn5)CC4)c4ncnc(N)c34)ccc2o1`, the half-inhibitory concentration (IC50) in assay [1] was found to be 0.49 nM; against Histone deacetylase 1, 0.91 nM; in the assay with A549, 2160 nM; in the assay with HCT-116, 3850 nM; in the assay on MV4-11, 1740 nM; in assay [2] it was 86 nM. Besides, the IC50 against Histone deacetylase 8 was 27 nM; on Histone deacetylase 11 it was more than 1000 nM. The inhibition entry in assay [3] and in assay [4] was “Active” in each case. In addition, the inhibition result in assay [5] and in [6] was “Dose-Dependent Effect” in each case.
Regarding `Nc1nc2cc(-c3nn(Cc4ccc(C(=O)NO)o4)c4ncnc(N)c34)ccc2o1`, the concentration for half-maximal inhibition (IC50) in assay [1] is 18 nM; at Histone deacetylase 1 it was more than 1000 nM.
Turning to `Nc1nc2cc(-c3nn(Cc4ccc(C(=O)NO)cc4)c4ncnc(N)c34)ccc2o1`, the IC50 is 18 nM in assay [1] and 5 nM against Histone deacetylase 1.

The values are drawn from ChEMBL document CHEMBL4808220, “Discovery of novel pyrazolopyrimidine derivatives as potent mTOR/HDAC bi-functional inhibitors via pharmacophore-merging strategy” (Bioorg Med Chem Lett, 2021).
